# How the values were obtained:
# Test in all cases: relative viability (nuclei count vs DMSO), 5 days (fraction); higher = more cells survive
# [1] = compound: Cc1ccc(C(=O)Nc2cccc(C(F)(F)F)c2)cc1Nc1cncc(C(N)=O)c1 [ALW-II-49-7] + NC(=O)Nc1cc(-c2cccc(F)c2)sc1C(=O)N[C@H]1CCCNC1 [AZD7762] (partner 0.2 µM)
# Procedure, shortened: (§1)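 Relative viability equals treated-well nuclei counts divided by vehicle-well nuclei counts. Counts came from 4× images of lung cancer cell lines grown in 1536-well plates for 5 days after pin-tool dosing on the day after seeding. Dosing used one drug alone or a fixed anchor-drug dose plus five library-drug doses (not always all listed) in √10 steps, and values are medians of duplicate plates.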
# [2] = compound: Cc1nc(Nc2ncc(C(=O)Nc3c(C)cccc3Cl)s2)cc(N2CCN(CCO)CC2)n1 [Dasatinib] + CC1(C)CCC(c2ccc(Cl)cc2)=C(CN2CCN(c3ccc(C(=O)NS(=O)(=O)c4ccc(N[C@H](CCN5CCOCC5)CSc5ccccc5)c(S(=O)(=O)C(F)(F)F)c4)cc3)CC2)C1 [Navitoclax] (partner 0.5 µM)
# Procedure, shortened: as §1
# [3] = compound: Cc1nc(Nc2ncc(C(=O)Nc3c(C)cccc3Cl)s2)cc(N2CCN(CCO)CC2)n1 [Dasatinib] + CS(=O)(=O)N1CCN(Cc2cc3nc(-c4cccc5[nH]ncc45)nc(N4CCOCC4)c3s2)CC1 [Pictilisib] (partner 1 µM)
# Procedure, shortened: as §1
# [4] = compound: Cc1nc(Nc2ncc(C(=O)Nc3c(C)cccc3Cl)s2)cc(N2CCN(CCO)CC2)n1 [Dasatinib] + Cc1nc(NC(=O)N2CCC[C@H]2C(N)=O)sc1-c1ccnc(C(C)(C)C(F)(F)F)c1 [Alpelisib] (partner 2 µM)
# Procedure, shortened: as §1
Cell Line,relative viability ([1]; first compound 0.08 µM),relative viability ([1]; first compound 0.253 µM),relative viability ([1]; first compound 0.8 µM),relative viability ([1]; first compound 2.53 µM),relative viability ([1]; first compound 8 µM),relative viability ([2]; first compound 0.005 µM),relative viability ([2]; first compound 0.01581 µM),relative viability ([2]; first compound 0.05 µM),relative viability ([2]; first compound 0.1581 µM),relative viability ([2]; first compound 0.5 µM),relative viability ([3]; first compound 0.005 µM),relative viability ([3]; first compound 0.01581 µM),relative viability ([3]; first compound 0.05 µM),relative viability ([3]; first compound 0.1581 µM),relative viability ([3]; first compound 0.5 µM),relative viability ([4]; first compound 0.005 µM),relative viability ([4]; first compound 0.01581 µM),relative viability ([4]; first compound 0.05 µM),relative viability ([4]; first compound 0.1581 µM),relative viability ([4]; first compound 0.5 µM)
LXF-289,1.08,1.11,0.981,1.26,1.22,1.01,0.969,0.923,0.408,0.171,0.659,0.472,0.298,0.111,0.076,1.05,1.05,0.666,0.154,0.109
NCI-H1755,0.543,0.497,0.379,0.432,0.382,0.697,0.591,0.501,0.273,0.142,0.317,0.21,0.191,0.182,0.139,0.775,0.602,0.437,0.275,0.137
HCC-15,1.22,1.14,1,1.39,1.25,0.692,0.528,0.555,0.332,0.239,0.69,0.567,0.681,0.486,0.502,0.875,0.783,0.779,0.53,0.528
EMC-BAC-2,1.09,1.21,0.916,1.11,0.896,1.13,0.939,0.936,0.548,0.28,0.455,0.344,0.327,0.243,0.185,0.632,0.478,0.466,0.285,0.194
NCI-H1734,0.588,0.562,0.544,0.483,0.55,0.729,0.695,0.629,0.404,0.374,0.367,0.362,0.355,0.307,0.229,0.553,0.477,0.469,0.346,0.278
NCI-H1395,0.381,0.43,0.364,–,0.362,1.01,0.971,0.91,0.609,0.476,0.713,0.593,0.552,0.337,0.376,0.896,0.926,0.947,0.544,0.519
HOP-62,0.386,0.455,0.648,0.619,0.586,1.02,1.01,0.829,1.09,0.372,0.636,0.581,0.565,0.223,0.143,1.27,1.02,0.838,0.679,0.272
LK-2,0.447,0.437,0.427,–,0.332,0.782,0.594,0.373,0.292,0.245,0.653,0.36,0.317,0.2,0.21,1.04,0.764,0.449,0.312,0.275

# Reference: the supplement of paper PMC10307832
